Laboratory results as given in patent US7169568B2, “Method for screening molecules that exert a neurotrophic effect through activation of neurotrophin receptors” (New York University, priority 2000, dated 2007).

How the values were obtained:
[1] = tested on: NGF-differentiated PC12 cells; test: Cell death assay (LDH release), NGF-differentiated PC12 cells after NGF and serum withdrawal; format: cell-based; settings: one-time treatment, 48 hours in the absence of NGF, LDH release
Protocol: (§1) FIGS. 6A and 6B show graphs on the trophic effects of adenosine in PC12 and hippocampal cells deprived of neurotrophins. In FIG. 6A, NGF-differentiated PC12 cells were prepared and then NGF and serum were withdrawn for 48 hours as described in the Materials and Methods section of Example 1. Upon NGF withdrawal, various concentrations of CGS 21680 (CGS) were added to the media. CON =No Addition. […] In FIG. 6B, hippocampal neurons were prepared and B27 was withdrawn for 48 hrs as described in the Materials and Methods section of Example 1. Upon B27 withdrawal, various concentrations of CGS 21680 (CGS) were added to the media. […] All LDH levels were quantitated and % cell death calculated as described in the Materials and Methods section of Example 1. All bars depict mean+SEM from three independent experiments.
Cell Death Assay. PC12 cells were differentiated in Dulbecco's modified Eagle's medium (DMEM), supplemented with 0.33% fetal bovine serum, 0.67% heat-inactivated horse serum, 2 mM L-glutamine and NGF (50 ng/ml) for 7 days. Serum and NGF were then removed, and adenosine agonists or growth factors added to the media. After 48 hrs, cell death was quantified by measuring lactate dehydrogenase (LDH) released from injured cells into the media using the Cytox 96 Cytotoxicity Assay Kit (Promega, Madison, Wis.). LDH values were normalized by subtracting the LDH released by cells maintained in NGF (50 ng/ml) and scaling to a full kill (=100%) reference induced by 5 min treatment with 1% Triton, an exposure that consistently killed all PC12 cells.

hippocampal neurons = test: Cell death assay (LDH release), hippocampal neurons after B27 withdrawal; format: cell-based, rat
Protocol: as §1, with “.” for “FIGS. 6A and 6B show graphs on the trophic effects of adenosine in PC12 and hippocampal cells deprived of neurotrophins.”
Hippocampal Cell Cultures. Dissociated primary cultures of hippocampal neurons from embryonic day 17 (E17) rats were prepared from timed-pregnant Sprague-Dawley rats as described previously (Aibel et al, 1998). Fetuses were removed under sterile conditions and kept in PBS on ice for microscopic dissection of the hippocampus. The meninges were removed and the tissue was placed in Neurobasal media (Gibco BRL). The tissue was briefly minced with fine forceps and then triturated with a fire polished pasteur pipet. Cells were counted and then plated on culture wells coated with 0.01 mg/ml poly-D-lysine overnight. Hippocampal cells were maintained in Neurobasal media, containing B27 supplement and L-glutamine (0.5 mM). Experiments were conducted 7–10 days after plating.
Hippocampal neurons were maintained in Neurobasal media containing B27 supplement and 0.5 mM L-glutamine for 10 days. B27 was then removed, and adenosine agonists or BDNF (100 ng/ml) was added to the media. MK-801 (1 μM) was added to all conditions, to decrease the contribution of NMDA-mediated cell death. After 48 hrs, cell death was assessed by measurement of LDH released into media.

CCNC(=O)[C@H]1O[C@@H](n2cnc3c(N)nc(NCCc4ccc(CCC(=O)O)cc4)nc32)[C@H](O)[C@@H]1O [CGS 21680, 2-[(4-(2-carboxyethyl)phenylethyl)]aminoadenosine-5′-N-ethylcarboxamide]
Cells rescued [1]: ~50%
Cells rescued (hippocampal neurons; 48 hrs after B27 withdrawal, absence of BDNF, LDH release): greater than 60%
Dose dependence of survival action (hippocampal neurons; various concentrations upon B27 withdrawal): dose-dependent
